Measured values from patent US20110097385A1, “Delivery System for Drug and Cell Therapy” (TTDC BIO L.P., priority 2003, published 2011).

Assays:
[1] = tested on: mice; experiment: Blood glucose in mice after injected insulin with or without crystallized dextran microparticles; type: in vivo; conditions: mouse
Procedure: The suspension was prepared as follows. 5.0 g of Dextran T10 (Pharmacia, Uppsala, Sweden) was dissolved in 20.0 g of water. The solution was filtered through a 0.22 μm filter (Millipore, Bedford, Mass.) and freeze dried. 3.0 g of the resulting powder was dissolved in 3.0 g of sterile water and placed in box at temperature 60° C. […] Finally, the produced crystallized dextran microparticles suspension was mixed with aqueous insulin solution and used in the experiment with mice. Samples of the suspension were introduced into the mice's legs and samples of animal blood were taken from each mouse's tail and analyzed for glucose concentrations.
In comparative example 15, no insulin was injected into the mouse.

[2] = tested on: mouse; experiment: Blood glucose in mouse after subcutaneous two phase composition or insulin alone; type: in vivo; conditions: 0.5 UI insulin subcutaneously
Procedure: 0.05 ml of the PEG and insulin solution is mixed with 0.15 ml of the microparticle and dextran suspension to form a two phase composition or mixture. 0.02 ml of the two phase mixture containing 0.5 UI of insulin is injected subcutaneously into mouse.

[3] = tested on: humans; conditions: in humans, company information (Novo Nordisk); cited from earlier work
[4] = tested on: Chinchilla rabbits; experiment: Blood glucose and duration of efficacy in rabbits after subcutaneous insulin formulations; conditions: rabbit, 8 UI subcutaneously
Procedure: Samples of the formulation were subcutaneously injected into the rabbits. […] Samples of animal blood were taken from the rabbit's ear vein and analyzed for glucose concentration. Blood glucose concentration was measured with a glucose analyzer (One-Touch® Lifescan, Johnson & Johnson, Milpitas, Calif., USA) after proper calibration.
In comparative examples 23 and 24, two intact rabbits were not provided any insulin.

[5] = insulin 0.5 UI injected, listed as 16
[6] = insulin 0.5 UI injected, listed as 21

Substance: Actrapid HM®: short-acting human recombinant insulin of Novo Nordisk, injected alone; Ex 21 is the average of 16 and 17
- change of blood glucose level from 120 minutes to 390 minutes after injection ([1]; insulin 0.5 UI): did substantially increase
- glucose 0 min ([1]; insulin 0.5 UI injected): 8.1 mmol/L
- glucose 0 min [1, 5]: 5.9 mmol/L
- glucose 0 min [1, 6]: 7 mmol/L
- glucose 15 min ([1]; insulin 0.5 UI injected): 3.8 mmol/L
- glucose 15 min [1, 5]: 3.3 mmol/L
- glucose 15 min [1, 6]: 3.6 mmol/L
- glucose 30 min ([1]; insulin 0.5 UI injected): 2.8 mmol/L
- glucose 30 min [1, 5]: 2.7 mmol/L
- glucose 30 min [1, 6]: 2.8 mmol/L
- glucose 45 min ([1]; insulin 0.5 UI injected): 1.9 mmol/L
- glucose 45 min [1, 5]: 1.8 mmol/L
- glucose 45 min [1, 6]: 1.9 mmol/L
- glucose 120 min ([1]; insulin 0.5 UI injected, 120 min): 0.9 mmol/L
- glucose 210 min ([1]; insulin 0.5 UI injected): 3.7 mmol/L
- glucose 210 min [1, 5]: 3.5 mmol/L
- glucose 210 min [1, 6]: 3.6 mmol/L
- glucose 270 min ([1]; insulin 0.5 UI injected): 3.4 mmol/L
- glucose 270 min [1, 5]: 3.0 mmol/L
- glucose 270 min [1, 6]: 3.2 mmol/L
- glucose 390 min ([1]; insulin 0.5 UI injected): 3.5 mmol/L
- glucose 390 min [1, 5]: 3.2 mmol/L
- glucose 390 min [1, 6]: 3.4 mmol/L
- glucose 15 min ([2]; 15 min): 3.7 mmol/L
- glucose 30 min ([2]; 30 min): 2.3 mmol/L
- glucose 45 min ([2]; 45 min): 1.7 mmol/L
- glucose 60 min ([2]; 60 min): 2.9 mmol/L
- glucose 120 min ([2]; 120 min): 6.7 mmol/L
- advertised duration of efficacy [3]: eight

Substance: Monotard HM®: long-acting insulin of Novo Nordisk (40 UI/ml), injected subcutaneously alone at 8 UI
- advertised duration of efficacy [3]: twenty four
- glucose 0 hours ([4]; 0 hours): 5.4 mmol/L
- glucose 0.5 hours ([4]; listed as 25): 5.8 mmol/L
- glucose 0.5 hours ([4]; listed as 26): 5.0 mmol/L
- glucose 1 hour ([4]; listed as 25): 3.8 mmol/L
- glucose 1 hour ([4]; listed as 26): 4.2 mmol/L
- glucose 1.5 hours ([4]; listed as 25): 3.2 mmol/L
- glucose 1.5 hours ([4]; listed as 26): 2.9 mmol/L
- glucose 2 hours ([4]; listed as 25): 2.4 mmol/L
- glucose 2 hours ([4]; listed as 26): 2.5 mmol/L
- glucose 16 hours ([4]; listed as 25): 3.9 mmol/L
- glucose 16 hours ([4]; listed as 26): 4.0 mmol/L
- glucose 24 hours ([4]; listed as 25): 5.6 mmol/L
- glucose 24 hours ([4]; listed as 26): 5.1 mmol/L
- glucose […] ([4]; listed as 25): 2.6 mmol/L
- glucose […] ([4]; listed as 26): 2.4 mmol/L
